Test results as given in the supplement of paper PMC10627819.

Experiments:
Assay in all cases: fitness (endpoint OD595 vs no drug) (fraction); higher = more growth
[1] = tested on: S. aureus Newman
Procedure, shortened: (§1)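 Bacterial growth was followed in 384-well plates seeded at OD595 0.01, with 30 µl per well, or 55 µl for S. pneumoniae, in TSB, LB Lennox or CY at 37 °C. OD595 was read every 30 min for 14 h, and each reading had the first reading subtracted as background. Fitness is the background-corrected optical density at entry into stationary phase divided by the robust mean of the no-drug control wells. This ratio is capped at 1.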

[2] = tested on: S. aureus DSM 20231
Procedure, shortened: as §1

[3] = tested on: S. pneumoniae D39V
Procedure, shortened: as §1

[4] = first compound 0.078 µg/mL, partner 0.125 µg/mL
[5] = first compound 0.078 µg/mL, partner 0.25 µg/mL
[6] = first compound 0.078 µg/mL, partner 0.5 µg/mL
[7] = first compound 0.156 µg/mL, partner 0.125 µg/mL
[8] = first compound 0.156 µg/mL, partner 0.25 µg/mL
[9] = first compound 0.156 µg/mL, partner 0.5 µg/mL
[10] = first compound 0.312 µg/mL, partner 0.125 µg/mL
[11] = first compound 0.312 µg/mL, partner 0.25 µg/mL
[12] = first compound 0.312 µg/mL, partner 0.5 µg/mL

## CO/N=C(\C(=O)N[C@@H]1C(=O)N2C(C(=O)O)=C(COC(C)=O)CS[C@H]12)c1csc(N)n1 [Cefotaxime] + CO/N=C(\C(=O)N[C@@H]1C(=O)N2C(C(=O)[O-])=C(C[N+]3(C)CCCC3)CS[C@H]12)c1csc(N)n1 [Cefepime]
[1]; [4]
  fitness: 0.75
[1]; [5]
  fitness: 0.695
[1]; [6]
  fitness: 0.696
[1]; [7]
  fitness: 0.618
[1]; [8]
  fitness: 0.577
[1]; [9]
  fitness: 0.519
[1]; [10]
  fitness: 0.469
[1]; [11]
  fitness: 0.415
[1]; [12]
  fitness: 0.36
[1]; first compound 0.625 µg/mL, partner 0.125 µg/mL
  fitness: 0.206
[1]; first compound 0.625 µg/mL, partner 0.25 µg/mL
  fitness: 0.178
[1]; first compound 0.625 µg/mL, partner 0.5 µg/mL
  fitness: 0.0892
[1]; first compound 1.25 µg/mL, partner 0.125 µg/mL
  fitness: 0.125
[1]; first compound 1.25 µg/mL, partner 0.25 µg/mL
  fitness: 0.0934
[1]; first compound 1.25 µg/mL, partner 0.5 µg/mL
  fitness: 0.049
[1]; first compound 2.5 µg/mL, partner 0.125 µg/mL
  fitness: 0.0454
[1]; first compound 2.5 µg/mL, partner 0.25 µg/mL
  fitness: 0.0501
[1]; first compound 2.5 µg/mL, partner 0.5 µg/mL
  fitness: 0.0407
[2]; first compound 0.039 µg/mL, partner 0.125 µg/mL
  fitness: 0.782
[2]; first compound 0.039 µg/mL, partner 0.25 µg/mL
  fitness: 0.847
[2]; first compound 0.039 µg/mL, partner 0.5 µg/mL
  fitness: 0.824
[2]; [4]
  fitness: 0.754
[2]; [5]
  fitness: 0.8
[2]; [6]
  fitness: 0.772
[2]; [7]
  fitness: 0.686
[2]; [8]
  fitness: 0.73
[2]; [9]
  fitness: 0.753
[2]; [10]
  fitness: 0.664
[2]; [11]
  fitness: 0.661
[2]; [12]
  fitness: 0.71
[3]; first compound 0.0018 µg/mL, partner 0.007 µg/mL
  fitness: ≥ 1
[3]; first compound 0.0018 µg/mL, partner 0.0078 µg/mL
  fitness: ≥ 1
[3]; first compound 0.0018 µg/mL, partner 0.014 µg/mL
  fitness: ≥ 1
[3]; first compound 0.0018 µg/mL, partner 0.0155 µg/mL
  fitness: ≥ 1
[3]; first compound 0.0018 µg/mL, partner 0.028 µg/mL
  fitness: 0.93
[3]; first compound 0.0018 µg/mL, partner 0.031 µg/mL
  fitness: 0.926
[3]; first compound 0.0035 µg/mL, partner 0.007 µg/mL
  fitness: 0.983
[3]; first compound 0.0035 µg/mL, partner 0.0078 µg/mL
  fitness: 0.998
[3]; first compound 0.0035 µg/mL, partner 0.014 µg/mL
  fitness: 0.994
[3]; first compound 0.0035 µg/mL, partner 0.0155 µg/mL
  fitness: 0.996
[3]; first compound 0.0035 µg/mL, partner 0.028 µg/mL
  fitness: 0.8
[3]; first compound 0.0035 µg/mL, partner 0.031 µg/mL
  fitness: 0.89
[3]; first compound 0.007 µg/mL, partner 0.007 µg/mL
  fitness: 0.94
[3]; first compound 0.007 µg/mL, partner 0.0078 µg/mL
  fitness: 0.921
[3]; first compound 0.007 µg/mL, partner 0.014 µg/mL
  fitness: 0.96
[3]; first compound 0.007 µg/mL, partner 0.0155 µg/mL
  fitness: 0.891
[3]; first compound 0.007 µg/mL, partner 0.028 µg/mL
  fitness: 0.629
[3]; first compound 0.007 µg/mL, partner 0.031 µg/mL
  fitness: 0.553
